In the supplement of paper PMC10307832:

Tests used:
Assay in all cases: relative viability (nuclei count vs DMSO), 5 days (fraction); higher = more cells survive
[1] = compound: CN1CCC(CC1)OC2=CC(=C(C=C2)NC3=NC=C4C(=N3)N(C(=O)N4C)C5CCCC5)OC [AZ3146] + N=C(N)NC(=N)NCCc1ccccc1 [Phenformin] (partner 250 µM)
How it was run: (§1)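 Values are medians from duplicate plates. Each reflects relative viability, defined as the nuclei count of treated wells over that of vehicle wells. Lung cancer cell lines in 1536-well plates were pin-tool dosed one day after seeding with one drug alone or with a fixed anchor-drug dose plus five library-drug doses (not always all listed) in √10 steps, then fixed, stained and imaged at 4× after 5 days.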

[2] = compound: CN1CCC(CC1)OC2=CC(=C(C=C2)NC3=NC=C4C(=N3)N(C(=O)N4C)C5CCCC5)OC [AZ3146] + Cc1nc(NC(=O)N2CCC[C@H]2C(N)=O)sc1-c1ccnc(C(C)(C)C(F)(F)F)c1 [Alpelisib] (partner 2 µM)
How it was run: as §1

[3] = compound: CN1CCC(CC1)OC2=CC(=C(C=C2)NC3=NC=C4C(=N3)N(C(=O)N4C)C5CCCC5)OC [AZ3146] + CC(=O)c1c(C)c2cnc(Nc3ccc(N4CCNCC4)cn3)nc2n(C2CCCC2)c1=O [Palbociclib] (partner 0.5 µM)
How it was run: as §1

[4] = compound: CN1CCC(CC1)OC2=CC(=C(C=C2)NC3=NC=C4C(=N3)N(C(=O)N4C)C5CCCC5)OC [AZ3146] + Cc1cc(Nc2cc(N3CCN(C)CC3)nc(Sc3ccc(NC(=O)C4CC4)cc3)n2)n[nH]1 [Tozasertib] (partner 0.1 µM)
How it was run: as §1

Row | Cell Line | relative viability ([1]; first compound 0.08 µM) | relative viability ([1]; first compound 0.253 µM) | relative viability ([1]; first compound 0.8 µM) | relative viability ([1]; first compound 2.53 µM) | relative viability ([1]; first compound 8 µM) | relative viability ([2]; first compound 0.08 µM) | relative viability ([2]; first compound 0.253 µM) | relative viability ([2]; first compound 0.8 µM) | relative viability ([2]; first compound 2.53 µM) | relative viability ([2]; first compound 8 µM) | relative viability ([3]; first compound 0.08 µM) | relative viability ([3]; first compound 0.253 µM) | relative viability ([3]; first compound 0.8 µM) | relative viability ([3]; first compound 2.53 µM) | relative viability ([3]; first compound 8 µM) | relative viability ([4]; first compound 0.08 µM) | relative viability ([4]; first compound 0.253 µM) | relative viability ([4]; first compound 0.8 µM) | relative viability ([4]; first compound 2.53 µM) | relative viability ([4]; first compound 8 µM)
1 | EKVX | 0.248 | 0.196 | 0.234 | 0.25 | 0.231 | 0.865 | 0.802 | 0.716 | 0.981 | 1 | 0.406 | 0.373 | 0.284 | 0.431 | 0.368 | 0.314 | 0.399 | 0.364 | 0.378 | 0.232
2 | EMC-BAC-2 | 0.413 | 0.465 | 0.53 | 0.533 | 0.478 | 0.718 | 0.718 | 0.768 | 0.743 | 0.84 | 0.466 | 0.519 | 0.555 | 0.53 | 0.514 | 0.222 | 0.269 | 0.307 | 0.277 | 0.233
3 | EPLC-272H | – | 0.247 | 0.288 | 0.345 | 0.317 | 0.706 | 0.925 | 0.933 | 0.973 | 0.964 | 0.327 | 0.342 | 0.309 | 0.338 | 0.27 | – | 0.237 | 0.184 | 0.217 | 0.138
4 | H3255 | 0.352 | 0.419 | 0.313 | 0.377 | 0.338 | 0.749 | 0.649 | 0.664 | 0.754 | 0.656 | 0.331 | 0.294 | 0.311 | 0.344 | 0.332 | 0.598 | 0.475 | 0.61 | 0.646 | 0.196
5 | HARA | 0.384 | 0.415 | 0.436 | 0.41 | 0.404 | 0.629 | 0.785 | 0.883 | 0.909 | 0.725 | 0.274 | 0.239 | 0.266 | 0.241 | 0.243 | 0.115 | 0.15 | 0.0956 | 0.0781 | 0.0801
6 | HCC-15 | 0.51 | 0.463 | 0.429 | 0.427 | 0.391 | 0.939 | 0.899 | 0.864 | 0.822 | 0.893 | 0.757 | 0.668 | 0.727 | 0.738 | 0.68 | 0.374 | 0.426 | 0.263 | 0.221 | 0.102
7 | HCC-44 | 0.118 | 0.124 | 0.0902 | 0.364 | 0.273 | 0.676 | 0.805 | 0.797 | 0.807 | 0.859 | 0.966 | 0.977 | 1.05 | 0.959 | 0.935 | 0.502 | 0.944 | 0.904 | 0.372 | 0.315
8 | HCC-78 | 0.421 | 0.557 | 0.566 | 0.81 | 0.551 | – | 0.268 | 0.224 | 0.367 | 0.321 | 0.486 | 0.483 | 0.414 | 0.54 | 0.425 | 0.315 | 0.449 | 0.347 | 0.404 | 0.44
9 | HCC-366 | 0.58 | 0.544 | 0.607 | 0.601 | 0.587 | 0.357 | 0.379 | 0.419 | 0.433 | 0.393 | 0.312 | 0.398 | 0.419 | 0.391 | 0.271 | 0.0936 | 0.1 | 0.0606 | 0.044 | 0.0336
10 | HCC-827 | 0.443 | 0.372 | 0.401 | 0.416 | 0.348 | 1.02 | 0.976 | 1.08 | 0.921 | 0.968 | 0.544 | 0.471 | 0.467 | 0.421 | 0.516 | 0.45 | 0.454 | 0.414 | 0.427 | 0.368
11 | HOP-62 | 0.567 | 0.697 | 0.604 | 0.647 | 0.523 | 0.896 | 0.96 | 0.796 | 1.07 | 0.832 | 0.357 | 0.5 | 0.438 | 0.436 | 0.447 | 0.325 | 0.447 | 0.345 | 0.348 | 0.291
12 | LC-2-ad | 0.54 | 0.557 | 0.614 | 0.628 | 0.609 | 0.793 | 0.797 | 0.866 | 0.956 | 0.792 | 0.419 | 0.546 | 0.475 | 0.455 | 0.453 | 0.323 | 0.44 | 0.424 | 0.365 | 0.269
13 | LCLC-97TM1 | 0.386 | 0.411 | 0.326 | 0.433 | 0.448 | – | – | 0.245 | 0.3 | 0.247 | 0.245 | 0.247 | 0.232 | 0.225 | 0.188 | 0.206 | 0.216 | 0.208 | 0.228 | 0.146
14 | LCLC-103H | 0.317 | 0.32 | 0.348 | 0.363 | 0.38 | 0.985 | 0.886 | 0.859 | 1.03 | 0.99 | 0.415 | 0.458 | 0.495 | 0.446 | 0.444 | 0.418 | 0.523 | 0.498 | 0.45 | 0.409
15 | LK-2 | 0.397 | 0.392 | 0.292 | 0.409 | 0.295 | 0.907 | – | – | 1.16 | 1.66 | – | – | 0.633 | 0.591 | 0.71 | 0.175 | 0.186 | 0.188 | 0.157 | 0.196
16 | LOU-NH91 | 0.736 | 0.565 | 0.768 | 0.761 | 0.76 | 0.662 | 0.663 | 0.681 | 0.711 | 0.672 | 0.513 | 0.582 | 0.512 | 0.539 | 0.537 | 0.453 | 0.668 | 0.664 | 0.525 | 0.365
17 | LU99A | 0.687 | 0.841 | 0.676 | 0.8 | 0.842 | 0.494 | 0.564 | 0.515 | 0.606 | 0.438 | – | 0.464 | 0.428 | 0.377 | 0.455 | 0.279 | 0.269 | 0.248 | 0.238 | 0.245
18 | LXF-289 | 0.535 | 0.49 | 0.524 | 0.528 | 0.43 | 1.02 | 1 | 0.96 | 1.06 | 0.946 | 0.574 | 0.603 | 0.564 | 0.595 | 0.579 | 0.194 | 0.189 | 0.158 | 0.216 | 0.189
19 | NCI-H23 | 0.823 | 0.805 | 0.832 | 0.789 | 0.8 | 0.591 | 0.668 | 0.676 | 0.744 | 0.738 | 0.503 | 0.515 | 0.494 | 0.513 | 0.473 | 0.315 | 0.338 | 0.362 | 0.301 | 0.338
20 | NCI-H322M | 0.82 | 0.811 | 0.715 | 0.833 | 0.585 | 0.759 | 0.83 | 0.699 | 0.807 | 0.785 | 0.475 | 0.465 | 0.461 | 0.518 | 0.471 | 0.455 | 0.466 | 0.439 | 0.495 | 0.509
21 | NCI-H358 | 0.451 | 0.283 | 0.319 | 0.313 | 0.149 | 0.897 | 0.741 | 0.783 | 0.889 | 0.78 | 0.141 | 0.139 | 0.123 | 0.135 | 0.101 | 0.0884 | 0.107 | 0.105 | 0.123 | 0.12
22 | NCI-H441 | 0.762 | 0.884 | 0.812 | 0.864 | 0.737 | 0.58 | 0.719 | 0.675 | 0.787 | 0.647 | 0.216 | 0.199 | 0.211 | 0.265 | 0.204 | 0.676 | 0.701 | 0.595 | 0.588 | 0.266
23 | NCI-H460 | 0.49 | 0.493 | 0.466 | 0.515 | 0.0767 | 0.375 | 0.466 | 0.478 | 0.573 | 0.254 | 0.088 | 0.139 | 0.139 | 0.161 | 0.0649 | 0.277 | 0.422 | 0.118 | 0.0719 | 0.0801
24 | NCI-H520 | 0.385 | 0.497 | 0.323 | 0.637 | 0.375 | 0.689 | 0.943 | 0.791 | 0.834 | 1.04 | 0.237 | 0.216 | 0.22 | 0.237 | 0.195 | 0.345 | 0.433 | 0.371 | 0.423 | 0.408
25 | NCI-H647 | 0.394 | 0.649 | 0.59 | 0.465 | 0.32 | 1.05 | 1.21 | 1.27 | 1.28 | 0.534 | 0.356 | 0.364 | 0.357 | 0.346 | 0.367 | 0.236 | 0.358 | 0.143 | 0.191 | 0.157
26 | NCI-H650 | 0.386 | 0.44 | 0.445 | 0.526 | 0.461 | 0.813 | 1.08 | 0.915 | 1.14 | 1.25 | 0.303 | 0.343 | 0.234 | 0.363 | 0.27 | 0.491 | 0.769 | 0.75 | 0.794 | 0.509
27 | NCI-H661 | 0.285 | 0.25 | 0.265 | 0.274 | 0.29 | 0.729 | 0.549 | 0.565 | 0.689 | 1.03 | 0.443 | 0.429 | 0.42 | 0.429 | 0.4 | 0.359 | 0.362 | 0.357 | 0.347 | 0.358
